# Measured values as given in US8048879B2, “Substituted 4,5,6,7-tetrahydro-isoxazolo[4,5-c]pyridine compounds and use thereof for producing medicaments” (Gruenenthal GmbH, priority 2005, dated 2011).
# Test system: batrachotoxin (BTX) binding site of the sodium channel
# Assay: Affinity for the batrachotoxin (BTX) binding site of the sodium channel, [3H]-batrachotoxinin A20 α-benzoate, rat cerebrocortex synaptosomes
# Conditions: test concentration not given
row,SMILES,BTX inhibition (rat) % inhibition [%]
1,"O=C(NC1CCCC1)c1noc2c1CN(C(=O)NCc1ccc(F)cc1)CC2 [Example 2, 6,7-dihydro-4H-isoxazolo[4,5-c]pyridine-3,5-dicarboxylic acid 3-cyclopentyl amide 5-(4-fluorobenzyl amide)]",83
2,"O=C(Nc1ccccc1)c1noc2c1CN(C(=O)Nc1ccc(OC(F)(F)F)cc1)CC2 [Example 3, 6,7-dihydro-4H-isoxazolo[4,5-c]pyridine-3,5-dicarboxylic acid 3-phenyl amide 5-[(4-trifluoromethoxy-phenyl) amide]]",73
3,"Cc1ccc(NC(=O)N2CCc3onc(C(=O)NCCc4ccccc4)c3C2)cc1[N+](=O)[O-] [Example 4, 6,7-dihydro-4H-isoxazolo[4,5-c]pyridine-3,5-dicarboxylic acid 5-[(4-methyl-3-nitro-phenyl) amide] 3-(phenethyl amide)]",80
4,"O=C(NCCc1ccccc1)c1noc2c1CN(C(=O)Nc1cccc(F)c1)CC2 [Example 8, 6,7-dihydro-4H-isoxazolo[4,5-c]pyridine-3,5-dicarboxylic acid 5-[(3-fluorophenyl) amide] 3-(phenethyl amide)]",72
5,"Cc1ccc(NC(=O)N2CCc3onc(C(=O)NCc4cccs4)c3C2)cc1[N+](=O)[O-] [Example 9, 6,7-dihydro-4H-isoxazolo[4,5-c]pyridine-3,5-dicarboxylic acid 5-[(4-methyl-3-nitro-phenyl) amide] 3-[(thiophen-2-ylmethyl) amide]]",43
6,"O=C(NCc1ccccc1)c1noc2c1CN(C(=O)NCCc1ccccc1)CC2 [Example 10, 6,7-dihydro-4H-isoxazolo[4,5-c]pyridine-3,5-dicarboxylic acid 3-benzyl amide 5-(phenethyl amide)]",64
7,"N#Cc1cccc(NC(=O)N2CCc3onc(C(=O)NCc4cccs4)c3C2)c1 [Example 12, 6,7-dihydro-4H-isoxazolo[4,5-c]pyridine-3,5-dicarboxylic acid 5-[(3-cyano-phenyl) amide]3-[(thiophen-2-ylmethyl) amide]]",47
8,"CCOc1ccc(NC(=O)N2CCc3onc(C(=O)Nc4ccccc4)c3C2)cc1 [Example 13, 6,7-dihydro-4H-isoxazolo[4,5-c]pyridine-3,5-dicarboxylic acid 5-[(4-ethoxy-phenyl) amide] 3-phenyl amide]",58
9,"Cc1ccc(NC(=O)N2CCc3onc(C(=O)NCc4ccc(F)cc4)c3C2)cc1[N+](=O)[O-] [Example 14, 6,7-dihydro-4H-isoxazolo[4,5-c]pyridine-3,5-dicarboxylic acid 3-(4-fluorobenzyl amide) 5-[(4-methyl-3-nitro-phenyl) amide]]",70
10,"CC(NC(=O)N1CCc2onc(C(=O)NCCc3ccccc3)c2C1)c1cccc2ccccc12 (stereo not drawn) [Example 18, 6,7-dihydro-4H-isoxazolo[4,5-c]pyridine-3,5-dicarboxylic acid 5-[(1-naphthalen-1-yl-ethyl) amide]3-(phenethyl amide)]",75
11,"CCOc1ccc(NC(=O)N2CCc3onc(C(=O)NCc4ccc(F)cc4)c3C2)cc1 [Example 21, 6,7-dihydro-4H-isoxazolo[4,5-c]pyridine-3,5-dicarboxylic acid 5-[(4-ethoxy-phenyl) amide] 3-(4-fluorobenzyl amide)]",68
12,"COc1ccc(Cl)cc1NC(=O)N1CCc2onc(C(=O)NCCc3ccccc3)c2C1 [Example 22, 6,7-dihydro-4H-isoxazolo[4,5-c]pyridine-3,5-dicarboxylic acid 5-[(5-chloro-2-methoxyphenyl) amide] 3-(phenethyl amide)]",56
13,"CCOC(=O)c1cccc(NC(=O)N2CCc3onc(C(=O)NCc4ccc(C)o4)c3C2)c1 [Example 23, 3-({3-[(5-methyl-furan-2-ylmethyl)-carbamoyl]-6,7-dihydro-4H-isoxazolo[4 5-c]pyridine-5-carbonyl}-amino)-benzoic acid ethyl ester]",46
14,"O=C(O)CC1(CC(=O)N2CCc3onc(C(=O)Nc4ccccc4)c3C2)CCCC1 [Example 28, {1-[2-oxo-2-(3-phenylcarbamoyl-6,7-dihydro-4H-isoxazolo[4,5-c]pyridin-5-yl)-ethyl]-cyclopentyl}acetic acid]",60
15,"O=C(c1noc2c1CN(S(=O)(=O)c1ccc(OC(F)(F)F)cc1)CC2)N(CCc1ccccc1)Cc1ccccc1 [Example 32, 5-(4-trifluoromethoxy-benzenesulfonyl)-4,5,6,7-tetrahydro-isoxazolo[4,5-c]pyridine-3-carboxylic acid benzyl-phenethyl amide]",59
16,"O=C(NC1CCN(Cc2ccc3ccccc3c2)C1)c1noc2c1CN(S(=O)(=O)c1ccccc1)CC2 (stereo not drawn) [Example 33, 5-benzenesulfonyl-4,5,6,7-tetrahydro-isoxazolo[4,5-c]pyridine-3-carboxylic acid (1-naphthalen-2-ylmethyl-pyrrolidin-3-yl) amide]",93
17,O=C(c1noc2c1CN(S(=O)(=O)c1ccc(F)cc1)CC2)N1CCN(c2ncnc3sccc23)CC1 [Example 34],42
18,"O=C(NCCCc1ccccc1)c1noc2c1CN(S(=O)(=O)c1ccc(F)cc1)CC2 [Example 35, 5-(4-fluoro-benzenesulfonyl)-4,5,6,7-tetrahydro-isoxazolo[4,5-c]pyridine-3-carboxylic acid (3-phenyl-propyl) amide]",59
19,"O=C(NC1CCN(Cc2ccc(C(F)(F)F)cc2)C1)c1noc2c1CN(S(=O)(=O)c1ccc(F)cc1)CC2 (stereo not drawn) [Example 39, 5-(4-fluoro-benzenesulfonyl)-4,5,6,7-tetrahydro-isoxazolo[4,5-c]pyridine-3-carboxylic acid [1-(4-trifluoromethyl-benzyl)-pyrrolidin-3-yl]amide]",79
20,"O=C(NC1CCCC1OCc1ccccc1)c1noc2c1CN(S(=O)(=O)c1cc(Cl)ccc1Cl)CC2 (stereo not drawn) [Example 40, 5-(2,5-dichloro-benzenesulfonyl)-4,5,6,7-tetrahydro-isoxazolo[4,5-c]pyridine-3-carboxylic acid (2-benzyloxy-cyclopentyl) amide]",65
21,"O=C(c1noc2c1CN(S(=O)(=O)c1ccc(F)cc1)CC2)N1CC=C(c2ccc(F)cc2)CC1 [Example 42, [5-(4-fluoro-benzenesulfonyl)-4,5,6,7-tetrahydro-isoxazolo[4,5-c]pyridin-3-yl]-[4-(4-fluorophenyl)-3,6-dihydro-2H-pyridin-1-yl]-methanone]",54
22,"CC12CCC(C(=O)N3CCc4onc(C(=O)NCCN5CCCC5)c4C3)(OC1=O)C2(C)C (stereo not drawn) [Example 51, 5-(4,7,7-trimethyl-3-oxo-2-oxa-bicyclo[2.2.1]heptane-1-carbonyl)-4,5,6,7-tetrahydro-isoxazolo[4,5-c]pyridine-3-carboxylic acid (2-pyrrolidin-1-yl-ethyl) amide]",42
23,"O=C(NCCc1ccccc1Cl)c1noc2c1CN(S(=O)(=O)c1cc(Cl)ccc1Cl)CC2 [Example 52, 5-(2,5-dichloro-benzenesulfonyl)-4,5,6,7-tetrahydro-isoxazolo[4,5-c]pyridine-3-carboxylic acid [2-(2-chlorophenyl)-ethyl] amide]",44
24,"O=C(c1noc2c1CN(S(=O)(=O)c1cc(Cl)ccc1Cl)CC2)N(CCc1ccccc1)Cc1ccccc1 [Example 59, 5-(2,5-dichloro-benzenesulfonyl)-4,5,6,7-tetrahydro-isoxazolo[4,5-c]pyridine-3-carboxylic acid benzyl-phenethyl amide]",58
25,"O=C(NCCN1CCOCC1)c1noc2c1CN(S(=O)(=O)c1cc(Cl)c(Cl)s1)CC2 [Example 63, 5-(4,5-dichloro-thiophene-2-sulfonyl)-4,5,6,7-tetrahydro-isoxazolo[4,5-c]pyridine-3-carboxylic acid (2-morpholin-4-yl-ethyl) amide]",55
26,"Cc1ccc(N2CCN(C(=O)c3noc4c3CN(S(=O)(=O)c3cc(Cl)ccc3Cl)CC4)CC2)c(C)c1 [Example 65, [5-(2,5-dichloro-benzenesulfonyl)-4,5,6,7-tetrahydro-isoxazolo[4,5-c]pyridin-3-yl]-[4-(2,4-dimethyl-phenyl)-piperazin-1-yl]-methanone]",49
27,"O=C(c1noc2c1CN(S(=O)(=O)c1cccc(C(F)(F)F)c1)CC2)N(CCc1ccccc1)Cc1ccccc1 [Example 68, 5-(3-trifluoromethyl-benzenesulfonyl)-4,5,6,7-tetrahydro-isoxazolo[4,5-c]pyridine-3-carboxylic acid benzyl-phenethyl amide]",51
28,"CN(C)S(=O)(=O)N1CCc2onc(C(=O)NCCc3ccc(Cl)cc3)c2C1 [Example 76, 5-dimethylsulfamoyl-4,5,6,7-tetrahydro-isoxazolo[4,5-c]pyridine-3-carboxylic acid [2-(4-chlorophenyl)-ethyl] amide]",41
29,"O=C(NC1CCCC1)c1noc2c1CN(C(=O)COc1ccc(Cl)cc1)CC2 [Example 81, 5-[2-(4-chlorophenoxy)-acetyl]-4,5,6,7-tetrahydro-isoxazolo[4,5-c]pyridine-3-carboxylic acid cyclopentyl amide]",65
30,"Cc1ccc(S(=O)(=O)N2CCc3onc(C(=O)N4CCN(CCC5CCCCC5)CC4)c3C2)cc1 [Example 82, [4-(2-cyclohexyl-ethyl)-piperazin-1-yl]-[5-(toluene-4-sulfonyl)-4,5,6,7-tetrahydro-isoxazolo[4,5-c]pyridin-3-yl]-methanone]",69
